# From patent US20220016101A1 (ACADIA Pharmaceuticals Inc., priority 2018, published 2022)
# Where “and” joins values, the source holds several entries; their conditions need not be identical. Identical values can stand only once.
# How the values were obtained:
# [1] = tested on: adults with Parkinson's disease and depression; test: CGI-I, open-label study in Parkinson's disease and depression; type: in vivo, human; settings: interim, first 31 patients
# From the text: “Clinical Global Impression (CGI)” scale is a clinician-rated, 7-point scale that is designed to rate the severity of the subject's depression at the time of assessment using the Investigator's judgment and past experience with subjects who have the same disorder (i.e., depression with anxious distress). “Clinical Global Impression-Improvement (CGI-I)” is a clinician-rated, 7-point scale that is designed to rate the improvement in the subject's depression at the time of assessment, relative to the symptoms at Baseline. “Clinical Global Impression—Severity (CGI-S)” is an assessment of the current severity of the patient's disease.
# Subjects can receive treatment as either monotherapy or adjunctively if inadequately controlled with SSRI/SNRI monotherapy. […] Secondary endpoints include Clinical Global Impression (CGI) scales (improvement and severity), Scale of Outcomes in PD-Sleep (SCOPA), and quality of life as measured by EuroQol-5 dimensions-5 levels (EQ-5D-5L).
# At approximately 2, 4, and 6 weeks after start of dosing of study drug subjects returned to the clinic for assessments. Safety measures, HAMD-17, C-SSRS (Columbia Suicide Severity Rating Scale), CGI-S(Clinical Global Impression-Severity), and CGI-I (Clinical Global Impression-Improvement) were evaluated at all visits. […]
# [2] = tested on: patients with MDD and an inadequate response to an SSRI or SNRI; test: Sheehan Disability Score (SDS): score, functional remission, days unproductive, MDD study; type: in vivo, human
# From the text: The SDS is well validated and widely accepted for assessing functional outcomes in patients with MDD (Weiller et al, Neuropsychiatr Dis Treat. 2017; 14:103-115). […] Routine assessments of both symptoms and function could be helpful for minimizing residual effects that increase the risk for relapse or recurrence (Sheehan et al, J Affect Disord. 2017; 215:299-313).
# “Functional remission” as used herein refers to remission in functional impairment. Functional remission is defined as a SDS total score of 6 or less at endpoint. (Sheehan et al. Human Psychopharmacology 2016, 31, 53-63).
# All patients continued on their SSRI or SNRI at a stable dose for the duration of the study.
# Clinic visits occurred weekly from Weeks 1 through 10. The MADRS was administered at screening and baseline. The HAMD-17, SDS, CGI, and KSS were administered at baseline and weekly during the study. Other endpoints such as the SF-12 were administered at baseline and Weeks 5 and 10. Treatment response was defined as a reduction of 50% from baseline for the HAMD-17 total score, and remission was defined as a HAMD-17 total score
# In Stage 1, weeks 1-5 is the study weeks 1-5 and in Stage 2, weeks 1-5 is the study weeks 6-10. 95% CI refers to Newcombe 95% confidence interval. The p-value is from stage-specific Pearson's Chi-square test. Functional remission is defined as SDS total score […].
# Higher SDS mean score indicates greater functional impairment. […] In Stage 1, weeks 1-5 is the study weeks 1-5 and in Stage 2, weeks 1-5 is the study weeks 6-10. LSM from the stage-specific MMRM analysis with the change from baseline as the outcome; treatment group, visit, treatment-by-visit interaction, baseline SDS Day Unproductive, and baseline SDS Days Unproductive-by-visit interaction as the factors. 2-sided p-value for treatment difference from the stage-specific MMRM analysis.
# [3] = tested on: patients with MDD and an inadequate response to an SSRI or SNRI; settings: in vivo
compound,measurement,setting,value
"CC(C)COc1ccc(CNC(=O)N(Cc2ccc(F)cc2)C2CCN(C)CC2)cc1 [pimavanserin, N-(4-Fluorophenylmethyl)-N-(1-methylpiperidin-4-yl)-N′-(4-(2-methylpropyloxy)phenylmethyl)carbamide]",patients with a CGI-I score of 1 or 2 (very much improved or much improved),[1],54.8%
same,SDS Days Unproductive Effect Size (Cohen's d),[2]; Stage 1,0.518
same,SDS Days Unproductive Change from Baseline to Week 5 Mean (SE),"[2]; Stage 1, 34 mg QD + SSRI/SNRI",−2.364 (0.3253)
same,SDS Days Unproductive Change from Baseline to Week 5 Median,"[2]; Stage 1, 34 mg QD + SSRI/SNRI",−2.000
same,SDS Days Unproductive Week 5 Mean (SE),"[2]; Stage 1, 34 mg QD + SSRI/SNRI",0.956 (0.2356)
same,SDS Days Unproductive Week 5 Median,"[2]; Stage 1, 34 mg QD + SSRI/SNRI",0.000
same,SDS score LSmean (SE) change from baseline to Week 5,"[2]; Stage 1, 34 mg QD + SSRI/SNRI",−3.3 (0.35)
same,SDS score LSmean (SE) change from baseline to Week 5,"[2]; Stage 1, 34 mg QD + SSRI/SNRI, listed as Pimavanserin",−3.254
same,SDS effect size (Cohen's d),[2]; Stage 1 Week 5,0.498 and ~0.5
same,"SDS individual items (work/school, social life, family life/home responsibilities) effect size vs placebo",[2]; Stage 1 Week 5,a positive effect size was observed for all the 3 individual items
same,SDS effect size (Cohen's d),"[2]; Stage 1 Week 5, listed as Pimavanserin",0.498
same,SDS Days Unproductive Effect Size (Cohen's d),[2]; Stage 2,0.167
same,SDS effect size (Cohen's d),[2]; Stage 2,0.311
same,SDS Days Unproductive Change from Baseline to Week 5 Mean (SE),"[2]; Stage 2, 34 mg QD + SSRI/SNRI",−0.655 (0.4689)
same,SDS Days Unproductive Change from Baseline to Week 5 Median,"[2]; Stage 2, 34 mg QD + SSRI/SNRI",−1.000
same,SDS Days Unproductive Week 5 Mean (SE),"[2]; Stage 2, 34 mg QD + SSRI/SNRI",2.276 (0.4295)
same,SDS Days Unproductive Week 5 Median,"[2]; Stage 2, 34 mg QD + SSRI/SNRI",2.000
same,SDS Score LSM change from baseline to Week 5,"[2]; Stage 2, 34 mg QD + SSRI/SNRI",−0.901
same,Functional remission: Remitter (%),"[2]; Week 1, Stage 1, 34 mg QD + SSRI/SNRI",9 (17.6) %
same,Functional remission: Remitter (%),"[2]; Week 1, Stage 2, 34 mg QD + SSRI/SNRI",2 (6.9) %
same,Functional remission: Remitter (%),"[2]; Week 2, Stage 1, 34 mg QD + SSRI/SNRI",21 (41.2) %
same,Functional remission: Remitter (%),"[2]; Week 2, Stage 2, 34 mg QD + SSRI/SNRI",3 (10.3) %
same,Functional remission: Remitter (%),"[2]; Week 3, Stage 1, 34 mg QD + SSRI/SNRI",20 (39.2) %
same,Functional remission: Remitter (%),"[2]; Week 3, Stage 2, 34 mg QD + SSRI/SNRI",3 (10.3) %
same,Functional remission: Remitter (%),"[2]; Week 4, Stage 1, 34 mg QD + SSRI/SNRI",20 (39.2) %
same,Functional remission: Remitter (%),"[2]; Week 4, Stage 2, 34 mg QD + SSRI/SNRI",4 (13.8) %
same,Functional remission: Remitter (%),"[2]; Week 5, Stage 1, 34 mg QD + SSRI/SNRI",22 (43.1) %
same,Functional remission: Remitter (%),"[2]; Week 5, Stage 2, 34 mg QD + SSRI/SNRI",6 (20.7) %
same,"SDS effect size, treatment difference in LSmean change from baseline to Week 10",[2]; continuous treatment for 10 weeks in Stages 1 and 2,0.469
same,Weighted Treatment Diff in Remission Rate (%),"[2]; functional remission, Overall Treatment Comparison at Week 5 (Linear Combination Test)",18.6%
same,Diff (PIM 34 mg-Placebo) in Remission Rate (%),"[2]; functional remission, Week 1, Stage 1",5.1%
same,Diff (PIM 34 mg-Placebo) in Remission Rate (%),"[2]; functional remission, Week 1, Stage 2",−3.4%
same,Diff (PIM 34 mg-Placebo) in Remission Rate (%),"[2]; functional remission, Week 2, Stage 1",27.4%
same,Diff (PIM 34 mg-Placebo) in Remission Rate (%),"[2]; functional remission, Week 2, Stage 2",0.0%
same,Diff (PIM 34 mg-Placebo) in Remission Rate (%),"[2]; functional remission, Week 3, Stage 1",24.1%
same,Diff (PIM 34 mg-Placebo) in Remission Rate (%),"[2]; functional remission, Week 3, Stage 2",0.0%
same,Diff (PIM 34 mg-Placebo) in Remission Rate (%),"[2]; functional remission, Week 4, Stage 1",19.5%
same,Diff (PIM 34 mg-Placebo) in Remission Rate (%),"[2]; functional remission, Week 4, Stage 2",6.9%
same,Diff (PIM 34 mg-Placebo) in Remission Rate (%),"[2]; functional remission, Week 5, Stage 1",23.4%
same,Diff (PIM 34 mg-Placebo) in Remission Rate (%),"[2]; functional remission, Week 5, Stage 2",13.8%
same,SDS LSmean difference (SE) pimavanserin vs placebo,[2]; overall (weighted Stage 1 and Stage 2),−0.8 (0.29)
same,deaths reported in the study,[3],no deaths
